Where two headings read alike, the source gives them in different places.
How the values were obtained:
[1] = tested on: human neuroblastoma IMR-32 cells; test: 50% toxicity in the IMR-32 induction assay (Table 12); assay type: cell-based
Description: (§1) Compounds were screened for AKR1C enzyme activity as set forth in Halim, M.; Yee, D. J. and Sames, D. J. Am. Chem. Soc. 2008, […], 14123-14128. […] Specifically, coumberone metabolism studies in IMR-32 can be done as follows: Early-passage (<P25) IMR-32 cells were seeded at a density of 4×10^4 cells/well in 96-well dish. They were then treated with the various inducers or DMSO vehicle (0.5% v/v) control. The concentration of each inducer was varied from 50 nM to 60 μM and the cells were incubated with these for either 24 or 48 hours. 72 hours after seeding, the media was removed and 100 μL of experimental media (DMEM without phenol red supplemented with 100 units/ml penicillin, 100 μg/ml streptomycin, 4 mM L-glutamine and 1% charcoal-dextran treated FBS) was added and incubated for 2 hrs. 100 μl more of the experimental media containing Coumberone (final concentration of 5 μM) was then added. The fluorescence of the cell culture medium was recorded on a plate reader MicroMax 384 connected to a Jobin Yvon Fluorolog by detecting fluorescence at 510 nm upon excitation at 385 nm. The reading was taken every 6 hours for 72 hours. Metabolic conversion rate was obtained by measuring the change in fluorescence per hour for the first 36 hours. The relative increase in metabolic rate was calculated by dividing the metabolic conversion rates of cells incubated with the activator compounds with those incubated with DMSO vehicle. […] Fold-induction is the increase metabolic activity of the reporter. […] “None” indicates no observed induction.

[2] = tested on: AKR1C2 and AKR1C3 in human neuroblastoma IMR-32 cells; test: Induction of AKR1C enzymes, coumberone metabolism (Tables 12, 13); conditions: for Fold induction of AKR1C2 and AKR1C3 in IMR-32 cells (result in words): inducer varied from 50 nM to 60 μM; for EC50: IMR-32, read-out: EC50 of induction of AKR1C2 and AKR1C3 in IMR-32 cells
Description: as §1
The IMR-32 induction assay was run as follows. Early-passage (<P25) IMR-32 cells were seeded at a density of 4×10^4 cells/well in 96-well dish. They were then treated with the various inducers or DMSO vehicle (0.5% v/v) control. The concentration of each inducer was varied from 50 nM to 60 μM and the cells were incubated with these for either 24 or 48 hours. 72 hours after seeding, the media was removed and 100 μL of experimental media (DMEM without phenol red supplemented with 100 units/ml penicillin, 100 μg/ml streptomycin, 4 mM L-glutamine and 1% charcoal-dextran treated FBS) was added and incubated for 2 hrs. 100 μl more of the experimental media containing Coumberone (final concentration of 5 μM) was then added. The fluorescence of the cell culture medium was recorded on a plate reader MicroMax 384 connected to a Jobin Yvon Fluorolog by detecting fluorescence at 510 nm upon excitation at 385 nm. The reading was taken every 6 hours for 72 hours. Metabolic conversion rate was obtained by measuring the change in fluorescence per hour for the first 36 hours. The relative increase in metabolic rate was calculated by dividing the metabolic conversion rates of cells incubated with the activator compounds with those incubated with DMSO vehicle. […] J. Am. Chem. Soc. 2008, 130, 14123-[…].

[3] = tested on: CCRF-CEM human T-cell acute lymphoblastic leukemia cells; test: In vitro cytotoxicity against CCRF-CEM (XTT / CCK-8 tetrazolium assay, 72 hr); conditions: Homo sapiens, CCRF-CEM, read-out: IC50 (μM) CCRF-CEM
Description: The cytotoxicity IC50 of each compound was measured with the XTT assay using the 2,3-bis(2-methoxy-4-nitro-5-sulfophenyl)-5-[(phenylamino)carbonyl]-2H-tetrazolium hydroxide (XTT) microculture method as described in Scudiero et al., Cancer Res., 48:4827 (1988), the contents of which are hereby incorporated by reference in their entirety. The CCK-8 assay is a cell counting kit-8 (CCK-8) tetrazolium assay using a 96-well microplate (Dojindo Molecular Technologies, Inc., Rockville, Md.) (M. Ishiyama et al., Biol. Pharm. Bull. 19: 1518, 1996). Absorbance was measured by Powerwave a XS microplate spectrophotometer. This method described is considered a general method in vitro cytotoxicity studies.
The data in Tables 2X, 3A-E, 4, 5, and 6 were obtained using the cell counting kit-8 (CCK-8) tetrazolium assay in a 96-well microplate. Five to seven concentrations of each compound in triplicate were used, and the IC50 values were determined by CompuSyn software automation (Chou T C. and Martin N. ComboSyn, Inc., 2006) based on the median-effect equation and plot (Chou T C. J. Theor. Biol. 59:235-276, 1976; Chou T C. Pharmacol. Rev. 58: 621-681, 2006). […] The r value defines the correlation coefficient of the median-effect plot which signifies the conformity to the mass-action law principle (Chou T C. J. Theor. Biol. 59:235-276, 1976; Chou T C. Pharmacol. Rev. 58:621-681, 2006). These parameters were determined by CompuSyn simulation (available at http://www.combosyn.com).
CCRF-CEM human T-cell acute lymphoblastic leukemia cells and the corresponding vinblastine-resistant cells (CCRF-CEM/VBL100) were cultured at an initial density of 5×10^4 cells per milliliter. The cultured cells were maintained in a 5% CO2-humidified atmosphere at 37° C. in RPMI medium 1640 (GIBCO/BRL) containing penicillin (100 units/mL), streptomycin (100 μg/mL, GIBCO/BRL), and 10% heat-inactivated fetal bovine serum. The cytotoxicity of each Compound of the invention was measured using the 2,3-bis(2-methoxy-4-nitro-5-sulfophenyl)-5-[(phenylamino)carbonyl]-2H-tetrazolium hydroxide (XTT) microculture method as described in Scudiero et al., Cancer Res., 48:4827 (1988), the contents of which are hereby incorporated by reference in their entirety.
Absorbance was measured by Powerwave XS microplate spectrophotometer.

[4] = Homo sapiens, IMR-32, read-out: 50% toxicity in IMR-32 cells
[5] = Homo sapiens, IMR-32, read-out: Fold induction of AKR1C2 and AKR1C3 in IMR-32 cells
[6] = Homo sapiens, IMR-32; read-out: 50% toxicity in IMR-32 cells
[7] = Homo sapiens, IMR-32, sub-head printed inside Table 13 r22; read-out: IC50 (μM) IMR-32

| SMILES | Fold induction of AKR1C2 and AKR1C3 in IMR-32 cells (result in words) [2] | IC50 [1, 6] | further results |
| --- | --- | --- | --- |
| CCCCCCC[C@@H](O)[C@H](O)CC#CC#C[C@H](O)c1ccccc1 | None | – | IC50 ([1]; listed as 19; read-out: 50% toxicity in IMR-32 cells): > 40 µM |
| CCCCCCC[C@@H](O)[C@H](O)CC#CC#CCO | – | – | IC50 [3]: 5.57 µM |
| CC12COC3(O)C4O[C@H]5CCC1(O)C45CC(O)C32C (mixture of isomers) [Compound 33] | None | – | IC50 [1, 4]: > 40 µM |
| C=C[C@@H](O)C#CC#CC[C@@H](O)[C@H](O)CCCCCCC [Compound 1] | – | – | IC50 [1, 4]: > 40 µM; fold induction at 20 µM [2, 5]: 2 |
| C=C[C@H](C#CC#CC[C@H]1OC(C)(C)O[C@@H]1CCCCCCC)OC(C)=O [Compound 4] | – | > 40 µM | fold induction at 20 µM [2, 5]: 1.5 |
| CCCCCCC[C@H]1OC(C)(C)O[C@@H]1CC#CC#CC(=O)CC [Compound 5] | None | – | – |
| C=CC(=O)C#CC#CC[C@H]1OC(C)(C)O[C@@H]1CCCCCCC [Compound 6] | None | – | – |
| C=C[C@H](C#CC#CC[C@H]1OC(C)(C)O[C@@H]1CCCCCCC)OC [Compound 7] | None | – | – |
| CCCCCCC[C@H]1OC(C)(C)O[C@@H]1CC#CC(O)CC (stereo partly drawn) [Compound 10] | None | ~25 µM | – |
| CCCCCCC[C@H]1OC(C)(C)O[C@@H]1Cc1nnn(Cc2ccccc2)c1C(O)CC (stereo partly drawn) [Compound 11] | None | ~35 µM | – |
| CCCCCCC[C@H]1OC(C)(C)O[C@@H]1Cc1c[nH]nn1 [Compound 12] | None | ~35 µM | – |
| CCCCCCC[C@H]1OC(C)(C)O[C@@H]1Cc1ccc(C=O)cc1 [Compound 13] | None | ~30 µM | – |
| CCCCCCC[C@H]1OC(C)(C)O[C@@H]1Cc1ccc(C(O)CC)cc1 (stereo partly drawn) [Compound 14] | None | ~40 µM | – |
| C=CC(O)c1ccc(C[C@H]2OC(C)(C)O[C@@H]2CCCCCCC)cc1 (stereo partly drawn) [Compound 15] | None | ~40 µM | – |
| C=C[C@H](O)C#CC#CC[C@H](O)[C@@H](O)CCCCCCC [Compound 16] | – | – | IC50 [1, 4]: ~12 µM; EC50 ([2]; Homo sapiens): ~3.5 µM; fold induction at 5 µM [2, 5]: 2.3 |
| C=C[C@H](O)C#CC#CC[C@@H]1OC(C)(C)O[C@H]1CCCCCCC [Compound 17] | – | ~5 µM | – |
| O=C1NC2(CCCCC2)C(=O)N2CCC[C@@H]12 [Compound 26] | None | – | – |
| C[C@@]12COC(=O)[C@]1(C)[C@@H]1O[C@]3(C)[C@@H](O)C[C@]24OC(=O)CC134 (stereo partly drawn) [Compound 31] | None | – | IC50 [1, 4]: > 40 µM |
| C[C@]12COC(=O)[C@@]1(C)[C@H]1O[C@@]3(C)[C@H](O)C[C@@]24OC(=O)CC134 (stereo partly drawn) [Compound 32] | None | – | IC50 [1, 4]: > 40 µM |

| SMILES | Fold induction of AKR1C2 and AKR1C3 in IMR-32 cells (result in words) [2] | IC50 [1, 6] | further results |
| --- | --- | --- | --- |
| CC1=C[C@@H]2OC[C@@H]3C[C@@]4(O)C[C@]3(C)[C@]2(CC1)CO4 [Compound 34] | None | – | IC50 [1, 4]: > 40 µM |
| C=C1CO[C@H]2[C@@H]3C(=O)C[C@@H](C(C)C)[C@]3(C)C[C@H]3OC(=O)C[C@@]3(C)[C@@]12O [Compound 35] | None | > 50 µM | – |
| CCCCCCC[C@H]1OC(C)(C)O[C@@H]1CC#CC#C[C@H](O)c1ccccc1 [Example 20] | None | ~10 µM | – |
| C=C[C@H](O)C#CC#CC[C@H]1OC(C)(C)O[C@@H]1CCCCCCC [Example 21] | – | ~4 µM | fold induction at 1 µM [2, 5]: 1.4 |
| CCCCCCC[C@@H](O)[C@H](O)CC#CC#C[C@H](O)c1ccccc1 [Example 24, (1R,7R,8R)-1-phenyl-2,4-pentadecadiyne-1,7,8-triol] | – | – | IC50 ([1]; read-out: 50% toxicity in IMR-32 cells): ~8 µM; EC50 ([2]; Homo sapiens): ~3.5 µM; fold induction at 5 µM [2, 5]: 1.5 |
| CCCCCCC[C@H]1OC(C)(C)O[C@@H]1CC#CC#C/C=C/C(OC)c1ccccc1 (stereo partly drawn) [Example 25] | None | ~32.5 µM | – |
| CCCCCCC[C@@H](O)[C@H](O)CC#CC#CC[C@H](O)[C@@H](O)CCCCCCC [analog 2] | None | – | IC50 [1, 4]: ~25 µM |
| C=C[C@@](C)(O)C#CC#CC[C@H]1OC(C)(C)O[C@@H]1CCCCCCC [analog 8] | None | – | – |
| CCCCCCC[C@H]1OC(C)(C)O[C@@H]1CC#CC#C/C=C/CO [analog 9] | None | – | – |
| C=C[C@H](O)C#CC#CC[C@H](O)[C@@H](O)CCCCCCC [drawing 241] | – | – | IC50 [3]: 2.69 µM |
| CCCCCCC[C@@H](O)[C@H](O)CC#CC#CC(O)/C=C/c1ccccc1 (stereo partly drawn) [drawing 243] | – | – | IC50 [3]: 9.46 µM |
| CCCCCCC[C@@H](O)[C@H](O)CC#CC#C[C@H](O)c1ccccc1 [drawing 244] | – | – | IC50 [3]: 5.96 µM |
| CCCCCCC[C@H]1OC(C)(C)O[C@@H]1CC#CC#C[C@H](O)c1ccccc1 [drawing 245] | – | – | IC50 [3]: 2.49 µM |
| CCCCCCC[C@H]1OC(C)(C)O[C@@H]1Cc1ccc(C=O)cc1 [drawing 246] | – | – | IC50 [3]: 12.6 µM |
| C=CC(O)c1ccc(C[C@H]2OC(C)(C)O[C@@H]2CCCCCCC)cc1 (stereo partly drawn) [drawing 247] | – | – | IC50 [3]: 5.25 µM |
| CCCCCCC[C@H]1OC(C)(C)O[C@@H]1Cc1ccc(C(O)CC)cc1 (stereo partly drawn) [drawing 248] | – | – | IC50 [3]: 4.18 µM |
| CCCCCCC[C@H]1OC(C)(C)O[C@@H]1Cc1nnn(Cc2ccccc2)c1C(O)CC (stereo partly drawn) [drawing 249] | – | – | IC50 [1, 7]: 35 µM |
| CCCCCCC[C@H]1OC(C)(C)O[C@@H]1Cc1c[nH]nn1 [drawing 250] | – | – | IC50 [1, 7]: 35 µM |
| CCCCCCC[C@H]1OC(C)(C)O[C@@H]1CC#CC(O)CC (stereo partly drawn) [drawing 251] | – | – | IC50 [1, 7]: 25 µM |

— patent US8859615B2, “Compounds, compositions and methods for reducing toxicity and treating or preventing diseases” (priority 2008, dated 2014)
